Measurements: patent US11684598B2, “Use of cannabinoids in the treatment of epilepsy” (priority 2015, dated 2023)
Several values for one entry are separate records, joined by “and”; a condition that tells them apart may be missing. Equal entries are not always repeated. Where two headings read alike, the source gives them in different places.

Columns and labels:
[1] = tested on: seizures; details: 200 mg/day pure CBD, four adult patients; cited from earlier work
[2] = tested on: D. discoideum development; assay: D. discoideum development assay; format: cell-based, Dictyostelium discoideum; details: 20 μM, 24 h on nitrocellulose filter
Procedure: Wild type (A×2) D. discoideum cells were grown in HL5 shaking culture for two days prior to development assay. Cells were washed in phosphate buffer (KK2; 20 mM Potassium phosphate buffer, pH 6.1), and 1×10^7 cells were spread onto nitrocellulose filters (Millipore, Cork). Absorbent pads (Millipore, Cork), divided into quarters, were placed in 2 ml culture dishes and soaked with 0.5 ml KK2 containing the cannabinoids at 20 μM. 1 mM Valproic acid was used as a positive control while KK2 containing 1% DMSO was used as a solvent only control. Nitrocellulose filters containing cells were quartered and place upon absorbent pads and maintained in a humid environment at 22° C. for 24 h. Fruiting body morphology was recorded using a dissection microscope and camera.

[3] = tested on: D. discoideum growth upon R. planticola bacterial plates; assay: Bacterial plate screen; format: cell-based, Dictyostelium discoideum; details: CBDA 12.3 μM, CBD 16.7 μM; 4 days
Procedure: Heat killed (75° C. for 30 minutes) R. planticola was spread onto the plates and ˜50 wild-type A×2 cells were added and left to grow at 22° C. Plates were checked regularly for colonies.

[4] = Toxicokinetics from toxicological studies in dogs, daily oral (gavage) administration; format: in vivo, dog; details: for Vd/F: read-out: Vz/F
Procedure: Samples were taken from the jugular vein into lithium heparin. Samples were mixed gently by hand then continuously for at least 2 minutes on automatic mixer and placed in a Kryorack until centrifugation, which was carried out at approximately 4° C. as soon as practicable. The resultant plasma was separated under low light conditions, transferred to uniquely labelled clear glass vials, placed in light proof boxes and frozen immediately at <−50° C.

[5] = CBD 100 mg/kg oral, Day 1, females, Max
[6] = CBD 100 mg/kg oral, Day 1, females, Min
[7] = CBD 100 mg/kg oral, Day 1, females, individual animals (Subjects 115-120)
[8] = CBD 100 mg/kg oral, Day 1, males, Max
[9] = CBD 100 mg/kg oral, Day 1, males, Min
[10] = CBD 100 mg/kg oral, Day 1, males, individual animals (Subjects 15-20)

C=C(C)[C@@H]1CCC(C)=C[C@H]1c1c(O)cc(CCCCC)cc1O [CBD, Cannabidiol]
seizure freedom [1]: two of the four patients became seizure free
effect on development (fruiting body morphology) [2]: able to aggregate and develop to form mature fruiting bodies
cell survival (colony number) compared to control (solvent only) [3]: No difference in colony number
tl/2 ([4]; CBD 100 mg/kg oral, Day 1, females, Geometric Mean): 5.9 h
AUC0-inf [4, 5]: 32800 ng·h/mL
AUC0-t [4, 5]: 32400 ng·h/mL
CL/F [4, 5]: 632 mL/min/kg
Cmax [4, 5]: 3780 ng/mL
tl/2 [4, 5]: 8.4 h
tmax [4, 5]: 8.0 h
tl/2 ([4]; CBD 100 mg/kg oral, Day 1, females, Mean, N=4): 6.1 h
tl/2 ([4]; CBD 100 mg/kg oral, Day 1, females, Median): 5.7 h
AUC0-inf [4, 6]: 2640 ng·h/mL
AUC0-t [4, 6]: 2540 ng·h/mL
CL/F [4, 6]: 50.8 mL/min/kg
Cmax [4, 6]: 411 ng/mL
tl/2 [4, 6]: 4.5 h
tmax [4, 6]: 1.0 h
AUC0-inf [4, 7]: 32800 ng·h/mL and 3280 ng·h/mL and 22400 ng·h/mL and 2640 ng·h/mL
AUC0-t [4, 7]: 31300 ng·h/mL and 3000 ng·h/mL and 20000 ng·h/mL and 22600 ng·h/mL and 2540 ng·h/mL and 32400 ng·h/mL
CL/F [4, 7]: 50.8 mL/min/kg and 508 mL/min/kg and 74.5 mL/min/kg and 632 mL/min/kg
Cmax [4, 7]: 3780 ng/mL and 655 ng/mL and 2520 ng/mL and 1900 ng/mL and 411 ng/mL and 3270 ng/mL
tl/2 [4, 7]: 4.7 h and 8.4 h and 6.6 h and 4.5 h
tmax [4, 7]: 2.0 h and 8.0 h and 1.0 h
tl/2 ([4]; CBD 100 mg/kg oral, Day 1, males, Geometric Mean): 7.0 h
AUC0-inf [4, 8]: 60500 ng·h/mL
AUC0-t [4, 8]: 51800 ng·h/mL
CL/F [4, 8]: 82.1 mL/min/kg
Cmax [4, 8]: 4570 ng/mL
tl/2 [4, 8]: 8.6 h
tmax [4, 8]: 8.0 h
tl/2 ([4]; CBD 100 mg/kg oral, Day 1, males, Mean, N=5): 7.2 h
tl/2 ([4]; CBD 100 mg/kg oral, Day 1, males, Median): 7.7 h
AUC0-inf [4, 9]: 20300 ng·h/mL
AUC0-t [4, 9]: 17200 ng·h/mL
CL/F [4, 9]: 27.5 mL/min/kg
Cmax [4, 9]: 1400 ng/mL
tl/2 [4, 9]: 5.4 h
AUC0-inf [4, 10]: 55300 ng·h/mL and 60500 ng·h/mL and 20300 ng·h/mL and 31100 ng·h/mL
AUC0-t [4, 10]: 47300 ng·h/mL and 51800 ng·h/mL and 33000 ng·h/mL and 17200 ng·h/mL and 28700 ng·h/mL and 26400 ng·h/mL
CL/F [4, 10]: 30.1 mL/min/kg and 27.5 mL/min/kg and 82.1 mL/min/kg and 53.6 mL/min/kg
Cmax [4, 10]: 3960 ng/mL and 4570 ng/mL and 3620 ng/mL and 1400 ng/mL and 2430 ng/mL and 3090 ng/mL
tl/2 [4, 10]: 8.6 h and 7.7 h and 5.4 h and 8.5 h and 5.7 h
tmax [4, 10]: 8.0 h
AUC0-inf ([4]; female, dog, plasma, po, 100 mg/kg, CBD 100 mg/kg oral, Day 1, females, Geometric Mean, read-out: AUC0-inf): 8930 ng·h/mL
AUC0-t ([4]; female, dog, plasma, po, 100 mg/kg, CBD 100 mg/kg oral, Day 1, females, Geometric Mean, read-out: AUC0-t): 12300 ng·h/mL
CL/F ([4]; female, dog, plasma, po, 100 mg/kg, CBD 100 mg/kg oral, Day 1, females, Geometric Mean, read-out: CL/F): 187 mL/min/kg
Cmax ([4]; female, dog, plasma, po, 100 mg/kg, CBD 100 mg/kg oral, Day 1, females, Geometric Mean, read-out: Cmax): 1590 ng/mL
Vd/F ([4]; female, dog, plasma, po, 100 mg/kg, CBD 100 mg/kg oral, Day 1, females, Geometric Mean): 94.8 L/kg
AUC0-inf ([4]; female, dog, plasma, po, 100 mg/kg, CBD 100 mg/kg oral, Day 1, females, Mean, N=4, read-out: AUC0-inf): 15300 ng·h/mL
CL/F ([4]; female, dog, plasma, po, 100 mg/kg, CBD 100 mg/kg oral, Day 1, females, Mean, N=4, read-out: CL/F): 316 mL/min/kg
Vd/F ([4]; female, dog, plasma, po, 100 mg/kg, CBD 100 mg/kg oral, Day 1, females, Mean, N=4): 169 L/kg
AUC0-t ([4]; female, dog, plasma, po, 100 mg/kg, CBD 100 mg/kg oral, Day 1, females, Mean, N=6, read-out: AUC0-t): 18600 ng·h/mL
Cmax ([4]; female, dog, plasma, po, 100 mg/kg, CBD 100 mg/kg oral, Day 1, females, Mean, N=6, read-out: Cmax): 2090 ng/mL
AUC0-inf ([4]; female, dog, plasma, po, 100 mg/kg, CBD 100 mg/kg oral, Day 1, females, Median, read-out: AUC0-inf): 12800 ng·h/mL
AUC0-t ([4]; female, dog, plasma, po, 100 mg/kg, CBD 100 mg/kg oral, Day 1, females, Median, read-out: AUC0-t): 21300 ng·h/mL
CL/F ([4]; female, dog, plasma, po, 100 mg/kg, CBD 100 mg/kg oral, Day 1, females, Median, read-out: CL/F): 291 mL/min/kg
Cmax ([4]; female, dog, plasma, po, 100 mg/kg, CBD 100 mg/kg oral, Day 1, females, Median, read-out: Cmax): 2210 ng/mL
Vd/F ([4]; female, dog, plasma, po, 100 mg/kg, CBD 100 mg/kg oral, Day 1, females, Median): 145 L/kg
tmax ([4]; female, dog, plasma, po, 100 mg/kg, CBD 100 mg/kg oral, Day 1, females, Median, read-out: tmax): 4 h
AUC0-t ([4]; female, dog, plasma, po, 100 mg/kg, comparative Table 11, females, 100 mg/kg, Day 1, mean, read-out: AUC0-t): 18600 ng·h/mL
Cmax ([4]; female, dog, plasma, po, 100 mg/kg, comparative Table 11, females, 100 mg/kg, Day 1, mean, read-out: Cmax): 2090 ng/mL
AUC0-inf ([4]; male, dog, plasma, po, 100 mg/kg, CBD 100 mg/kg oral, Day 1, males, Geometric Mean, read-out: AUC0-inf): 37600 ng·h/mL
AUC0-t ([4]; male, dog, plasma, po, 100 mg/kg, CBD 100 mg/kg oral, Day 1, males, Geometric Mean, read-out: AUC0-t): 31900 ng·h/mL
CL/F ([4]; male, dog, plasma, po, 100 mg/kg, CBD 100 mg/kg oral, Day 1, males, Geometric Mean, read-out: CL/F): 44.4 mL/min/kg
Cmax ([4]; male, dog, plasma, po, 100 mg/kg, CBD 100 mg/kg oral, Day 1, males, Geometric Mean, read-out: Cmax): 2970 ng/mL
Vd/F ([4]; male, dog, plasma, po, 100 mg/kg, CBD 100 mg/kg oral, Day 1, males, Geometric Mean): 27 L/kg
AUC0-inf ([4]; male, dog, plasma, po, 100 mg/kg, CBD 100 mg/kg oral, Day 1, males, Mean, N=5, read-out: AUC0-inf): 40500 ng·h/mL
CL/F ([4]; male, dog, plasma, po, 100 mg/kg, CBD 100 mg/kg oral, Day 1, males, Mean, N=5, read-out: CL/F): 48.1 mL/min/kg
Vd/F ([4]; male, dog, plasma, po, 100 mg/kg, CBD 100 mg/kg oral, Day 1, males, Mean, N=5): 29.9 L/kg
AUC0-t ([4]; male, dog, plasma, po, 100 mg/kg, CBD 100 mg/kg oral, Day 1, males, Mean, N=6, read-out: AUC0-t): 34100 ng·h/mL
Cmax ([4]; male, dog, plasma, po, 100 mg/kg, CBD 100 mg/kg oral, Day 1, males, Mean, N=6, read-out: Cmax): 3180 ng/mL
AUC0-inf ([4]; male, dog, plasma, po, 100 mg/kg, CBD 100 mg/kg oral, Day 1, males, Median, read-out: AUC0-inf): 35400 ng·h/mL
AUC0-t ([4]; male, dog, plasma, po, 100 mg/kg, CBD 100 mg/kg oral, Day 1, males, Median, read-out: AUC0-t): 30800 ng·h/mL
CL/F ([4]; male, dog, plasma, po, 100 mg/kg, CBD 100 mg/kg oral, Day 1, males, Median, read-out: CL/F): 47.1 mL/min/kg
Cmax ([4]; male, dog, plasma, po, 100 mg/kg, CBD 100 mg/kg oral, Day 1, males, Median, read-out: Cmax): 3360 ng/mL
Vd/F ([4]; male, dog, plasma, po, 100 mg/kg, CBD 100 mg/kg oral, Day 1, males, Median): 22.3 L/kg
tmax ([4]; male, dog, plasma, po, 100 mg/kg, CBD 100 mg/kg oral, Day 1, males, Median, read-out: tmax): 6 h
tmax ([4]; male, dog, plasma, po, 100 mg/kg, CBD 100 mg/kg oral, Day 1, males, individual animals (Subjects 15-20), read-out: tmax): 6 h
AUC0-t ([4]; male, dog, plasma, po, 100 mg/kg, comparative Table 10, males, 100 mg/kg, Day 1, mean, read-out: AUC0-t): 34100 ng·h/mL
Cmax ([4]; male, dog, plasma, po, 100 mg/kg, comparative Table 10, males, 100 mg/kg, Day 1, mean, read-out: Cmax): 3180 ng/mL
